Results as given in patent US8367680B2, “Antibacterial small molecules and methods for their synthesis” (Wisconsin Alumni Research Foundation, priority 2008, dated 2013).
≈ marks a conversion by molar mass, not a printed value. Like-named read-outs stand apart in the source and are kept apart here.

Tested on: MRSA
Settings: Staphylococcus aureus

MIC (read-out: Solution MIC) | MIC (read-out: Support MIC) | Compound
54 ± 1 µM (≈ 18.9 µg/mL) | 25 to 50 µM (≈ 8.73 to 17.5 µg/mL) | NC(=O)COc1cccc(C(=O)/C=C/c2cccc(C(F)(F)F)c2)c1 [Compound B18]
0.6 ± 0.2 µM (≈ 0.199 µg/mL) | – | O=C(O)c1cn(C2CC2)c2cc(N3CCNCC3)c(F)cc2c1=O [ciprofloxacin]
5 ± 1 µM (≈ 1.69 µg/mL) | – | CC(=O)NC[C@H]1CN(c2ccc(N3CCOCC3)c(F)c2)C(=O)O1 [linezolid]
